Here are results for two molecules from patent publication US12338216B2, “Solvates of abscisic acid and liquid compositions containing abscisic acid” (Clariant International Ltd., priority 2019, dated 2025).

The conditions of data set [1]: room temperature; cited from earlier work.
Data set [2] concerns enzymatically isolated cuticles of pear tree leaves. Nature of the data set: Penetration of abscisic acid through enzymatically isolated cuticles of pear tree leaves (HPLC). In kind it is in vitro ADME. The note with it: active ingredient 0.1 g/L in spray liquid, tap water, n = 8-10. On the procedure: In this test, the penetration of abscisic acid through enzymatically isolated cuticles of pear tree leaves was measured. The principle of the method has been published and described in detail e.g. in WO-A-2005/194844 or WO2017211572 A1.
To determine the penetration, 10 μl a spray liquor of the composition mentioned in the examples were applied to the outer side of a cuticle. In the spray liquors tap water was used in each case.
After application of the spray liquors was allowed to evaporate in each case the water, then in each case the chambers were inverted and placed in thermostated troughs, with air being blown at a defined temperature and humidity to the outside of the cuticle. The incipient penetration therefore took place at a relative humidity of 56% and a set temperature at 10° C. and 25° C. The penetration of active ingredients was determined by High Performance Liquid Chromatography (HPLC).

Data set [3] concerns poinsettia plants, e.g. the Merlot variety. Nature of the data set: Phytotoxicity / plant compatibility on indicator plants. The class given is in vivo. The note with it: 1 g/L; within one day. The source says: The plant compatibility of the abscisic acid was checked using indicator plants such as poinsettia plants, e.g. the Merlot variety. If no necrosis or other phytotoxicity symptoms such as leaf curl-up or deformation in any case were observed the substance is considered plant compatible and not phytotoxic.

As to `CC1=CC(=O)CC(C)(C)[C@@]1(O)/C=C/C(C)=C\C(=O)O` [abscisic acid, (2Z,4E)-5-[(1S)-1-hydroxy-2,6,6-trimethyl-4-oxocyclohex-2-en-1-yl]-3-methylpenta-2,4-dienoic acid], in data set [1], the “Highest concentration that can be achieved in water” value is “about 3000 ppm”. For the same molecule, the “Mean penetration for abscisic acid after time” value in data set [2] (10° C./56% rH, 1 day) was found to be 5.3%; in data set [2] (10° C./56% rH, 2 day), 8.2%; in data set [2] (25° C./56% rH, 1 day), 1.4%; in data set [2] (25° C./56% rH, 2 day) it was 2.2%.

Regarding ethoxylated lauryl alcohol, the Phytotoxicity symptoms entry in data set [3] is “strong distinct necrosis”.
